# Patent US20070099869A1, “Association product of α-glycosyl α,α-trehalose with ionic metal compound” (KABUSHIKI KAISHA HAYASHIBARA SEIBUTSU KAGAKU KENKYUJO, priority 2003, published 2007)
# How the values were obtained:
# [1] = Inhibition of formation of calcium phosphate precipitate (solubilized calcium); assay type: physicochemical; settings: calcium chloride solution with saccharide mixed with phosphate solution pH 6.8, 37° C., three hours, supernatant, n=3
# Description: When phosphate ion is added to a calcium chloride aqueous solution, calcium phosphate, an insoluble salt, is formed from calcium ion and phosphate ion and then precipitated. Effects of α-maltosyl α,α-trehalose and other saccharides on the phenomenon were investigated as follows. A calcium chloride aqueous solution was prepared by the steps of adding 3.68 grams of calcium chloride dihydrate to deionized water to dissolve therein and adding deionized water to the solution to give a total volume of 200 ml. α-Maltosyl α,α-trehalose, prepared by the method in Experiment 1, maltotetraose, and anhydrous crystalline sucrose were used as saccharides for the test. […]
# Twenty-six grams, d.s.b., of either of the saccharides for the test were added to five milliliters of the above calcium chloride solution and dissolved by adding additional deionized water. […] The calcium concentration (the solubilized calcium concentration) of each supernatant was measured using “ZEEMAN 5100”, an atomic adsorption-photometer commercialized by Perkin-Elmar Japan Co. Ltd., Kanagawa, Japan. […]
# The above procedure was carried out for individual each sample (three kinds of saccharides and control) for three times and the average value of the solubilized calcium concentration was calculated.
# [2] = Hygroscopicity (deliquescence) test at relative humidity 52.8%; assay type: physicochemical
# Description: In order to compare the hygroscopicity (deliquescent property) of an associated complex of α-maltosyl α,α-trehalose and calcium chloride with that of a control, calcium chloride which is known to have a high deliquescent property, the following hygroscopicity test was carried out. The crystalline associated complexes of α-maltosyl α,α-trehalose and calcium chloride, prepared according to the method in Experiment 2-1 and calcium chloride dehydrate, were used as test samples. The moisture content (weight of moisture per one gram of the sample) of each sample was measured by conventional drying loss method. […] The amount of moisture per one gram of each sample after 1 to 7 days preservation was calculated based on the assumption that the increased amount measured to that of 0 day preservation was the amount of moisture absorbed by each sample.
# [3] = Description: The changes of solubility in water of metal ion compounds were examined under coexistence of α-maltosyl α,α-trehalose and metal ion compounds. α-Maltosyl α,α-trehalose prepared by the method in Experiment 1 was used for the tests. […] Solutions prepared by dissolving the same amount of metal ion compounds only were prepared as controls. After dissolving the contents completely, all the beakers were allowed to stand at room temperature (25° C.) for 24 hours. Successively, precipitation of crystals was judged by macroscopic observation. In the case of precipitating crystals, the formed crystals were collected and analyzed for components by the conventional method.
# [4] = Inhibition of deterioration (browning) of L-ascorbic acid in the presence of metal ion; assay type: physicochemical; settings: 50° C., sealed vial
# Description: L-Ascorbic acid deteriorates rapidly by the oxidative degradation in the presence of iron and copper ions and causes browning. The effects of α-maltosyl α,α-trehalose on the phenomenon were investigated as follows. Five kinds of aqueous solutions, having respective compositions described in Table 8, were prepared. Aqueous solutions of L-ascorbic acid alone or L-ascorbic acid and metal ion compounds were used as controls. The test solutions were prepared by adding α-maltosyl α,α-trehalose to the control solutions. Ten milliliters of each of these test and control solutions were placed in different 20 ml-vials and sealed. The vials were preserved at 50° C. […] After the preservation, the degree of coloring of each solution was measured. In the case of the control solutions containing L-ascorbic acid alone, the degrees of coloring were measured at the preservation periods of 40 hours and 96 hours. The absorbance at 420 nm (within the visible light range) of each sample was measured for the degree of coloring.
compound,measurement,setting,value
"OC[C@H]1O[C@H](O[C@H]2[C@H](O)[C@@H](O)[C@@H](O[C@H]3[C@H](O)[C@@H](O)[C@@H](O[C@H]4[C@H](O)[C@@H](O)C(O)O[C@@H]4CO)O[C@@H]3CO)O[C@@H]2CO)[C@H](O)[C@@H](O)[C@@H]1O (stereo partly shown) [Maltotetraose, maltotetraose]",Concentration of solubilized calcium (average ± standard deviation),[1],6910 ± 830 ng/mL
"O.O.[Ca+2].[Cl-].[Cl-] [CaCl2•2H2O, calcium chloride dihydrate]","Moisture content/g-sample, 1 day","[2]; 25° C., relative humidity 52.8%, 1 day",0.319 g
same,"Moisture content/g-sample, 2 days","[2]; 25° C., relative humidity 52.8%, 2 days",0.359 g
same,"Moisture content/g-sample, 3 days","[2]; 25° C., relative humidity 52.8%, 3 days",0.405 g
same,"Moisture content/g-sample, 7 days","[2]; 25° C., relative humidity 52.8%, 7 days",0.430 g
same,"Moisture content/g-sample, 0 day","[2]; before preservation, drying loss method",0.245 g
"O.O.O.O.[Cl][Mn][Cl] [Manganese chloride, manganese chloride tetrahydrate]","Solubility in water in the presence of α-maltosyl α,α-trehalose",[3],remarkably improved
"O=C1O[C@H]([C@@H](O)CO)C(O)=C1O [14.8 mM AsA, L-ascorbic acid]","Degree of coloring (Abs. at 420 nm), preserved for 40 hrs",[4]; 40 hrs,0.012
same,"Degree of coloring (Abs. at 420 nm), preserved for 96 hrs",[4]; 96 hrs,0.166
"O.O.O.O.O.O.[Cl-].[Cl-].[Sr+2] [Strontium chloride, Strontium chloride hexahydrate]","Precipitation of crystal, in the absence of α-maltosyl α,α-trehalose","[3]; 0.1 mole metal ion compound only in 30 g water, dissolved by heating, 25° C. for 24 hours, macroscopic observation",Precipitated
